Source: patent US7235554B2, “3-heteroaryl-3,5-dihydro-4-oxo-4H-pyridazino[4,5-b] indole-1-acetamide derivatives, preparation and use thereof in medicaments” (Sanofi-Aventis, priority 2002, dated 2007)

SMILES | melting point [°C]
CN(C)C(=O)Cc1nn(-c2cccnc2)c(=O)c2c1c1ccc(F)cc1n2C.Cl | 244 to 250
CN(C)C(=O)Cc1nn(-c2ccncc2)c(=O)c2c1c1ccc(F)cc1n2C.Cl | 267 to 270
CN(C)C(=O)Cc1nn(-c2ccccn2)c(=O)c2c1c1ccc(F)cc1n2C [Compound 1, 7-fluoro-N,N,5-trimethyl-4-oxo-3-(pyridin-2-yl)-3,5-dihydro-4H-pyridazino[4,5-b]indole-1-acetamide] | 222 to 223
CN(C)C(=O)Cc1nn(-c2ccccn2)c(=O)c2c1c1ccc(Cl)cc1n2C [Compound 4, 7-chloro-N,N,5-trimethyl-4-oxo-3-(pyridin-2-yl)-3,5-dihydro-4H-pyridazino[4,5-b]indole-1-acetamide] | 183 to 184
CCN(CC)C(=O)Cc1nn(-c2cccnc2)c(=O)c2c1c1ccc(Cl)cc1n2C [Compound 9, 7-chloro-N,N-diethyl-5-methyl-4-oxo-3-(pyridin-3-yl)-3,5-dihydro-4H-pyridazino[4,5-b]indole-1-acetamide] | 199 to 200

Results, then the compound that gave them:

melting point [°C] | SMILES
250 to 252 | CN(C)C(=O)Cc1nn(-c2cccnc2)c(=O)c2c1c1ccc(Cl)cc1n2C.Cl
275 to 279 | CN(C)C(=O)Cc1nn(-c2ccncc2)c(=O)c2c1c1ccc(Cl)cc1n2C.Cl
255 to 256 | CN(C)C(=O)Cc1nn(-c2cccnc2)c(=O)c2c1c1ccc(Cl)cc1n2C [Compound 5, 7-chloro-N,N,5-trimethyl-4-oxo-3-(pyridin-3-yl)-3,5-dihydro-4H-pyridazino[4,5-b]indole-1-acetamide]
253 to 255 | Cc1ccc(-n2nc(CC(=O)N(C)C)c3c4ccc(Cl)cc4n(C)c3c2=O)cn1 [Compound 8, 7-chloro-N,N,5-trimethyl-4-oxo-3-(6-methylpyridin-3-yl)-3,5-dihydro-4H-pyridazino[4,5-b]indole-1-acetamide]
